Measurements reported in article PMC11768839 (Viruses, 2024).
Where “and” joins values, the source holds several entries; their conditions need not be identical. Identical values can stand only once.

Tests used:
[1] = Cytotoxicity in Huh7 cells (alamarBlue); format: cell-based; conditions: human, listed with HCoV-229E qPCR assay
[2] = test system: Coronavirus (HCoV-229E); test: HCoV-229E qPCR assay (viral RNA release into media) in Huh7 cells
[3] = test system: HAdV-C5; test: Adenovirus HAdV-C5 virus yield in A549 cells (endpoint dilution); format: cell-based, human adenovirus serotype 5; conditions: 5 µM, HAdV-C5 100 IU/cell, 24 hpi
[4] = test system: SARS-CoV-2; format: cell-based
[5] = test system: SARS-CoV-2 nucleocapsid (N) protein; test: SARS-CoV-2 nucleocapsid (N) protein expression by western blot; format: cell-based; conditions: SARS-CoV-2 SB2, Huh7 cells, immunoblot
[6] = test system: HCoV-229E; test: HCoV-229E intracellular viral RNA accumulation after delayed compound addition; format: cell-based; conditions: compound added 16 hpi, 9 h after addition, MOI 2, Huh7 cells
[7] = Pharmacokinetics in mice; format: in vivo
[8] = format: in vivo
[9] = test system: HCoV-OC43; test: HCoV-OC43 replication in human lung organoids (RTqPCR of media); format: cell-based; conditions: 2.5 µM added post-infection, MOI of 2, 3 or 6 days post-infection
[10] = test system: SARS-CoV-2; test: SARS-CoV-2 replication in human lung organoids (RTqPCR of media); format: cell-based; conditions: 2.5 µM added post-infection, SB2, MOI of 2, 3 or 6 days post-infection
[11] = test system: A549 cells
[12] = test system: HIV-1; parameters: method as in earlier work; conditions: HIV-1 replication; cited from earlier work
[13] = test system: Influenza A Virus (PR8); test: Influenza PR8 TCID50 assay (infectivity) in A549 cells; conditions: MOI of 2, A549 cells
[14] = test system: HCoV-OC43; test: HCoV-OC43 viral release into media (RTqPCR) in Huh7 cells; conditions: 2.5 µM, MOI of 2, 24 h
[15] = test system: HCoV-229E; test: HCoV-229E infectious virus yield by TCID50 assay in Huh7 cells; conditions: dose reducing HCoV-229E RNA in media by 50% (EC50, 1.2 µM), 24 h
[16] = test system: Influenza A Virus (PR8); test: Influenza PR8 qPCR assay (viral RNA release into media) in A549 cells
[17] = in vitro; conditions: human

In the case of `CC(C)(C)NC(=O)N[C@H](C(=O)N1C[C@H]2[C@@H]([C@H]1C(=O)NC(CC1CCC1)C(=O)C(N)=O)C2(C)C)C(C)(C)C` (stereo partly drawn) [Boceprevir, reference compound], the CC50 ([1]; MOI of 2) is reported as > 100000 nM, the EC50 ([2]; MOI of 2, Huh7 cells) is reported as 111 ± 24 nM and the EC90 ([2]; MOI of 2, Huh7 cells) is reported as 1200 ± 95 nM.
For `O=[N+]([O-])c1ccc(Nc2ccc(Cl)c(C(F)(F)F)c2)c2nonc12` [Compound 5342191, N-[4-chloro-3-(trifluoromethyl)phenyl]-7-nitro-2,1,3-benzoxadiazol-4-amine], the CC50 ([1]; MOI of 0.01) was > 1000 nM, the CC50 ([1]; MOI of 2) was 34000 ± 755 nM and the “reduction in virus yield (maximal effect)” value [3] was ~ 1000 fold. The “suppression of the release of SARS-CoV-2” value [4] was “approximately 80%”, the “reduction of SARS-CoV-2 nucleocapsid (N) protein expression” value [5] was “approximately 90%” and the “reduction of viral genomic RNA accumulation” value [6] was ~ 50%. The oral bioavailability [7] was “orally bioavailable”, the blood concentration maintained ([7]; oral dose of 30 mg/kg, up to 8 h after administration, 30 mg/kg) was 2 µg/mL and 5.5 µM and the “body weight / gross necroscopy findings” value ([8]; 5342191-treated mice) was “absence of significant changes in body weight”. The tolerability ([8]; daily oral dose of 40 mg/kg over 7 days, mice) was “well tolerated”, the “HCoV-OC43 replication in human lung organoids” value [9] was “effectively blocked” and the “SARS-CoV-2 replication in human lung organoids” value [10] was “effectively blocked”. The “effect on cell metabolism” value [11] was “limited effect”, the EC50 [12] was 750 nM and the EC90 [12] was 1750 nM. The EC50 [13] was 75 ± 17 nM, the EC90 [13] was 99 ± 8 nM and the “inhibition of viral release into the media” value [14] was “over 90%”. For the same molecule, the “reduction in infectious virus yield” value [15] was “over 90%”, the EC50 ([2]; MOI of 0.01) was 73 ± 13 nM and the EC90 ([2]; MOI of 0.01) was 857 ± 56 nM. For the same molecule, the EC50 ([2]; MOI of 2, Huh7 cells) was 1200 ± 196 nM, the EC90 ([2]; MOI of 2, Huh7 cells) was 2500 ± 282 nM and the EC50 ([16]; MOI of 0.01) was 47 ± 13 nM. The EC90 ([16]; MOI of 0.01) was 149 ± 55 nM, the EC50 ([16]; MOI of 2) was 51 ± 42 nM and the EC90 ([16]; MOI of 2) was 104 ± 23 nM.
With `NC(=O)c1nc(F)c[nH]c1=O` [Favipiravir] the CC50 [17] was > 100000 nM, the EC50 [13] was 1200 ± 135 nM and the EC90 [13] was 6200 ± 332 nM.
For `CC(C)C(=O)OC[C@H]1O[C@@H](n2ccc(NO)nc2=O)[C@H](O)[C@@H]1O` [Molnupiravir, reference compound], the CC50 ([1]; MOI of 2) was > 100000 nM, the EC50 ([2]; MOI of 2, Huh7 cells) was 25 ± 9 nM and the EC90 ([2]; MOI of 2, Huh7 cells) was 137 ± 23 nM.
For `CCOC(=O)C1=C[C@@H](OC(CC)CC)[C@H](NC(C)=O)[C@@H](N)C1` [Oseltamivir], the CC50 [17] was > 100000 nM, the EC50 [13] was 257 ± 40 nM and the EC90 [13] was 1500 ± 209 nM.
